Values of other authors in patent EP1030653B1, “DINITROANILINE LIPOSOMAL FORMULATIONS AND PROCESSES FOR THEIR PREPARATION” (INSTITUTO NACIONAL DE ENGENHARIA E TECNOLOGIA …, priority 1998, dated 2000).

Test system: Leishmania sp

CCC1=C(C[C@H]2NCCc3cc(OC)c(OC)cc32)C[C@H]2c3cc(OC)c(OC)cc3CCN2C1 [dehydroemetine]
cure: 67%

CC(=O)N(O)CCCCCNC(=O)CCC(=O)N(O)CCCCCNC(=O)CCC(=O)N(O)CCCCCN [desferrioxiamine]
efficiency (literature (32)): 44%

CN(Cc1cnc2nc(N)nc(N)c2n1)c1ccc(C(=O)N[C@@H](CCC(=O)O)C(=O)O)cc1 [methotrexate]
reduction on the infection level (literature (10, 11)): 85%

N=C(N)c1ccc(OCCCCCOc2ccc(C(=N)N)cc2)cc1 [pentamidine]
efficacy (in words) (literature): less efficacy than antimonial derivatives

CCCN(CCC)c1c([N+](=O)[O-])cc(C(F)(F)F)cc1[N+](=O)[O-] [trifluralin]
activity against the visceral forms (topical route, literature (12)): no activity
